{"source": "ChEMBL document CHEMBL4308841", "about": "“Synthesis, in vitro antiproliferative activity, and kinase inhibitory effects of pyrazole-containing diarylureas and diarylamides” (Eur J Med Chem, 2018)"}
{"tested_on": "SK-MEL-5", "experiment": "Growth inhibition of human SK-MEL-5 cells assessed as cell growth at 10 uM incubated for 48 hrs by sulforhodamine B assay relative to control", "assay_type": "functional", "conditions": "SK-MEL-5, 48 h, read-out: Activity", "units": {"growth at 10 µM": "%"}}
{"smiles": "O=C(Nc1cccc(-n2cc(-c3ccncc3)c(-c3cc(O)cc(Cl)c3)n2)c1)c1cc(C(F)(F)F)cc(C(F)(F)F)c1", "growth at 10 µM": 64.5}
{"tested_on": "SF-539", "experiment": "Growth inhibition of human SF539 cells assessed as cell growth at 10 uM incubated for 48 hrs by sulforhodamine B assay relative to control", "assay_type": "functional", "conditions": "SF-539, 48 h, read-out: Activity", "units": {"growth at 10 µM": "%"}}
{"smiles": "O=C(Nc1cccc(-n2cc(-c3ccncc3)c(-c3cc(O)cc(Cl)c3)n2)c1)c1cc(C(F)(F)F)cc(C(F)(F)F)c1", "growth at 10 µM": 75.5}
{"tested_on": "MCF7", "experiment": "Growth inhibition of human MCF7 cells assessed as cell growth at 10 uM incubated for 48 hrs by sulforhodamine B assay relative to control", "assay_type": "functional", "conditions": "MCF7, 48 h, read-out: Activity", "units": {"growth at 10 µM": "%"}}
{"smiles": "O=C(Nc1cccc(-n2cc(-c3ccncc3)c(-c3cc(O)cc(Cl)c3)n2)c1)c1cc(C(F)(F)F)cc(C(F)(F)F)c1", "growth at 10 µM": 23}
{"tested_on": "SW-620", "experiment": "Growth inhibition of human SW620 cells assessed as cell growth at 10 uM incubated for 48 hrs by sulforhodamine B assay relative to control", "assay_type": "functional", "conditions": "SW-620, 48 h, read-out: Activity", "units": {"growth at 10 µM": "%"}}
{"smiles": "O=C(Nc1cccc(-n2cc(-c3ccncc3)c(-c3cc(O)cc(Cl)c3)n2)c1)c1cc(C(F)(F)F)cc(C(F)(F)F)c1", "growth at 10 µM": 61}
{"tested_on": "OVCAR-8", "experiment": "Growth inhibition of human OVCAR8 cells assessed as cell growth at 10 uM incubated for 48 hrs by sulforhodamine B assay relative to control", "assay_type": "functional", "conditions": "OVCAR-8, 48 h, read-out: Activity", "units": {"growth at 10 µM": "%"}}
{"smiles": "O=C(Nc1cccc(-n2cc(-c3ccncc3)c(-c3cc(O)cc(Cl)c3)n2)c1)c1cc(C(F)(F)F)cc(C(F)(F)F)c1", "growth at 10 µM": 39.6}
{"tested_on": "A549", "experiment": "Growth inhibition of human A549/ATCC cells assessed as cell growth at 10 uM incubated for 48 hrs by sulforhodamine B assay relative to control", "assay_type": "functional", "conditions": "A549, 48 h, read-out: Activity", "units": {"growth at 10 µM": "%"}}
{"smiles": "O=C(Nc1cccc(-n2cc(-c3ccncc3)c(-c3cc(O)cc(Cl)c3)n2)c1)c1cc(C(F)(F)F)cc(C(F)(F)F)c1", "growth at 10 µM": 27.3}
{"tested_on": "T47D", "experiment": "Growth inhibition of human T47D cells assessed as cell growth at 10 uM incubated for 48 hrs by sulforhodamine B assay relative to control", "assay_type": "functional", "conditions": "read-out: Activity", "units": {"growth at 10 µM": "%"}}
{"smiles": "O=C(Nc1cccc(-n2cc(-c3ccncc3)c(-c3cc(O)cc(Cl)c3)n2)c1)c1cc(C(F)(F)F)cc(C(F)(F)F)c1", "growth at 10 µM": 26.3}
{"tested_on": "SNB-75", "experiment": "Growth inhibition of human SNB75 cells assessed as cell growth at 10 uM incubated for 48 hrs by sulforhodamine B assay relative to control", "assay_type": "functional", "conditions": "SNB-75, 48 h, read-out: Activity", "units": {"growth at 10 µM": "%"}}
{"smiles": "O=C(Nc1cccc(-n2cc(-c3ccncc3)c(-c3cc(O)cc(Cl)c3)n2)c1)c1cc(C(F)(F)F)cc(C(F)(F)F)c1", "growth at 10 µM": 52.7}
{"tested_on": "K562", "experiment": "Growth inhibition of human K562 cells assessed as cell growth at 10 uM incubated for 48 hrs by sulforhodamine B assay relative to control", "assay_type": "functional", "conditions": "K562, 48 h, read-out: Activity", "units": {"growth at 10 µM": "%"}}
{"smiles": "O=C(Nc1cccc(-n2cc(-c3ccncc3)c(-c3cc(O)cc(Cl)c3)n2)c1)c1cc(C(F)(F)F)cc(C(F)(F)F)c1", "growth at 10 µM": 20.4}
{"tested_on": "HL-60(TB)", "experiment": "Growth inhibition of human HL-60(TB) cells assessed as cell growth at 10 uM incubated for 48 hrs by sulforhodamine B assay relative to control", "assay_type": "functional", "conditions": "HL-60, 48 h, read-out: Activity", "units": {"growth at 10 µM": "%"}}
{"smiles": "O=C(Nc1cccc(-n2cc(-c3ccncc3)c(-c3cc(O)cc(Cl)c3)n2)c1)c1cc(C(F)(F)F)cc(C(F)(F)F)c1", "growth at 10 µM": 21.4}
{"tested_on": "NCI-H322M", "experiment": "Growth inhibition of human NCI-H322M cells assessed as cell growth at 10 uM incubated for 48 hrs by sulforhodamine B assay relative to control", "assay_type": "functional", "conditions": "read-out: Activity", "units": {"growth at 10 µM": "%"}}
{"smiles": "O=C(Nc1cccc(-n2cc(-c3ccncc3)c(-c3cc(O)cc(Cl)c3)n2)c1)c1cc(C(F)(F)F)cc(C(F)(F)F)c1", "growth at 10 µM": 74.1}
{"tested_on": "SK-MEL-28", "experiment": "Growth inhibition of human SK-MEL-28 cells assessed as cell growth at 10 uM incubated for 48 hrs by sulforhodamine B assay relative to control", "assay_type": "functional", "conditions": "SK-MEL-28, 48 h, read-out: Activity", "units": {"growth at 10 µM": "%"}}
{"smiles": "O=C(Nc1cccc(-n2cc(-c3ccncc3)c(-c3cc(O)cc(Cl)c3)n2)c1)c1cc(C(F)(F)F)cc(C(F)(F)F)c1", "growth at 10 µM": 63.6}
{"tested_on": "PC-3", "experiment": "Growth inhibition of human PC3 cells assessed as cell growth at 10 uM incubated for 48 hrs by sulforhodamine B assay relative to control", "assay_type": "functional", "conditions": "PC-3, 48 h, read-out: Activity", "units": {"growth at 10 µM": "%"}}
{"smiles": "O=C(Nc1cccc(-n2cc(-c3ccncc3)c(-c3cc(O)cc(Cl)c3)n2)c1)c1cc(C(F)(F)F)cc(C(F)(F)F)c1", "growth at 10 µM": 21.7}
{"tested_on": "HCC 2998", "experiment": "Growth inhibition of human HCC2998 cells assessed as cell growth at 10 uM incubated for 48 hrs by sulforhodamine B assay relative to control", "assay_type": "functional", "conditions": "HCC 2998, 48 h, read-out: Activity", "units": {"growth at 10 µM": "%"}}
{"smiles": "O=C(Nc1cccc(-n2cc(-c3ccncc3)c(-c3cc(O)cc(Cl)c3)n2)c1)c1cc(C(F)(F)F)cc(C(F)(F)F)c1", "growth at 10 µM": 28.9}
{"tested_on": "RPMI-8226", "experiment": "Growth inhibition of human RPMI8226 cells assessed as cell growth at 10 uM incubated for 48 hrs by sulforhodamine B assay relative to control", "assay_type": "functional", "conditions": "RPMI-8226, 48 h, read-out: Activity", "units": {"growth at 10 µM": "%"}}
{"smiles": "O=C(Nc1cccc(-n2cc(-c3ccncc3)c(-c3cc(O)cc(Cl)c3)n2)c1)c1cc(C(F)(F)F)cc(C(F)(F)F)c1", "growth at 10 µM": 32.1}
{"tested_on": "SNB-19", "experiment": "Growth inhibition of human SNB19 cells assessed as cell growth at 10 uM incubated for 48 hrs by sulforhodamine B assay relative to control", "assay_type": "functional", "conditions": "SNB-19, 48 h, read-out: Activity", "units": {"growth at 10 µM": "%"}}
{"smiles": "O=C(Nc1cccc(-n2cc(-c3ccncc3)c(-c3cc(O)cc(Cl)c3)n2)c1)c1cc(C(F)(F)F)cc(C(F)(F)F)c1", "growth at 10 µM": 63.1}
{"tested_on": "SR", "experiment": "Growth inhibition of human SR cells assessed as cell growth at 10 uM incubated for 48 hrs by sulforhodamine B assay relative to control", "assay_type": "functional", "conditions": "read-out: Activity", "units": {"growth at 10 µM": "%"}}
{"smiles": "O=C(Nc1cccc(-n2cc(-c3ccncc3)c(-c3cc(O)cc(Cl)c3)n2)c1)c1cc(C(F)(F)F)cc(C(F)(F)F)c1", "growth at 10 µM": 3.15}
